Experimental data taken from patent US20240391965A1, “STAPLED ANTIMICROBIAL PEPTIDES (STAMPS) AND USES THEREOF” (Lytica Therapeutics, Inc., priority 2021, published 2024).
Values after ≈ are worked out from the molar mass of the structure shown. Starred links: 1 amine or outer side, 2 acyl side, 3 side chain; linkers in the order of their positions; H or OH if unused. Positions of bridges follow the written chain, without caps; N, C: chain ends. Residues, ends and D or L forms follow the SMILES beside them. 2,2'Bipyridine(5,5'-diCH2) = c1cc(-c2ccc(C[*:2])cn2)ncc1C[*:1]; Naphthalene(2,6-diCH2) = c1cc2cc(C[*:2])ccc2cc1C[*:1]

Legend:
[1] = tested on: Staphylococcus aureus (S. aureus); format: cell-based; details: microbroth dilution, 20-24 hours at 37° C.
Protocol: (§1) Antimicrobial Activity Assay: The following microbroth dilution protocol was adapted from CLSI to determine the minimum inhibitory concentration (MIC) of StAMPs. Briefly, Mueller-Hinton broth (MHB) or cation-adjusted Mueller-Hinton broth (MHB II) was prepared and autoclaved. Then, a colony of bacterial cells was picked and grown overnight in broth at 37° C. and then diluted and allowed to grow again for 3-4 hours. Serial dilutions of peptide stocks in water (10 μl) were prepared using clear round-bottom polypropylene 96-well plates. Then 90 μl of bacteria in broth was added to give a final inoculum of 5×10^5 CFU/ml. The plates were then covered with porous tape to reduce evaporation and incubated for 20-24 hours at 37° C. The MIC was the minimum peptide concentration at which no visible bacterial growth was observed.

[2] = tested on: Pseudomonas aeruginosa (P. aeruginosa); format: cell-based; details: microbroth dilution, 20-24 hours at 37° C.
Protocol: as §1

[3] = tested on: Escherichia coli (E. coli); format: cell-based; details: microbroth dilution, 20-24 hours at 37° C.
Protocol: as §1

[4] = tested on: Klebsiella pneumoniae (K. pneumoniae); format: cell-based; details: microbroth dilution, 20-24 hours at 37° C.
Protocol: as §1

[5] = tested on: Acinetobacter baumannii (A. baumannii); format: cell-based; details: microbroth dilution, 20-24 hours at 37° C.
Protocol: as §1

[6] = 48 hours cytotoxicity assay (CellTiter-Glo), liver toxicity; format: cell-based, human; details: 48 hours of incubation, CellTiter-Glo; read-out: Inhibitory Concentration at 50% Cytotoxicity (IC50) Human Liver Cells (HepG2)
In short: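 Viability from CellTiter-Glo luminescence after StAMP dilution series or vehicle acted on HepG2 cells for 48 h at 37 °C. Cells were grown in EMEM plus 10% FBS and given 4 h to attach before dosing.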

CC[C@H](C)[C@H](NC(=O)CN)C(=O)N[C@@H](Cc1ccccc1)C(=O)N[C@@H](CO)C(=O)N[C@@H](CCCCN)C(=O)N[C@@H](CC(C)C)C(=O)N[C@@H](C)C(=O)N[C@H]1CSCc2ccc3cc(ccc3c2)CSC[C@@H](C(=O)N[C@H](C(=O)N[C@@H](CO)C(=O)NCC(=O)N[C@@H](CC(C)C)C(=O)N[C@@H](CCCCN)C(=O)NCC(N)=O)[C@@H](C)CC)NC(=O)[C@H](CC(C)C)NC(=O)[C@H](CC(N)=O)NC(=O)[C@H](CCCCN)NC(=O)[C@H]([C@@H](C)CC)NC(=O)[C@H](CCCCN)NC(=O)[C@H](CCCCN)NC1=O [compound 67] (H-GIFSKLACKKIKNLCISGLKG-NH2; linker 8-15 via Naphthalene(2,6-diCH2))
Minimum Inhibitory Concentration (MIC) S. aureus [1]: >64 µg/mL | Minimum Inhibitory Concentration (MIC) P. aeruginosa [2]: 32 µg/mL | Minimum Inhibitory Concentration (MIC) E. coli [3]: 4 µg/mL | Minimum Inhibitory Concentration (MIC) K. pneumoniae [4]: 8 µg/mL | Minimum Inhibitory Concentration (MIC) A. baumannii [5]: 4 µg/mL | IC50 [6]: 59 µg/mL (≈ 24.9 µM)

CC[C@H](C)[C@H](NC(=O)CN)C(=O)N[C@@H](Cc1ccccc1)C(=O)N[C@@H](CO)C(=O)N[C@@H](CCCCN)C(=O)N[C@@H](CC(C)C)C(=O)N[C@@H](C)C(=O)NCC(=O)N[C@H]1CSCc2ccc3cc(ccc3c2)CSC[C@@H](C(=O)N[C@@H](CO)C(=O)NCC(=O)N[C@@H](CC(C)C)C(=O)N[C@@H](CCCCN)C(=O)NCC(N)=O)NC(=O)[C@H](CC(C)C)NC(=O)[C@H](CC(C)C)NC(=O)[C@H](CC(N)=O)NC(=O)[C@H](CCCCN)NC(=O)[C@H]([C@@H](C)CC)NC(=O)[C@H](CCCCN)NC1=O [compound 69] (H-GIFSKLAGCKIKNLLCSGLKG-NH2; linker 9-16 via Naphthalene(2,6-diCH2); N-terminus assumed)
Minimum Inhibitory Concentration (MIC) S. aureus [1]: >64 µg/mL | Minimum Inhibitory Concentration (MIC) P. aeruginosa [2]: >64 µg/mL | Minimum Inhibitory Concentration (MIC) E. coli [3]: 16 µg/mL | Minimum Inhibitory Concentration (MIC) K. pneumoniae [4]: 32 µg/mL | Minimum Inhibitory Concentration (MIC) A. baumannii [5]: 16 µg/mL | IC50 [6]: 52 µg/mL (≈ 22.6 µM)

CC[C@H](C)[C@H](NC(=O)CN)C(=O)N[C@@H](Cc1ccccc1)C(=O)N[C@@H](CO)C(=O)N[C@@H](CCCCN)C(=O)N[C@@H](CC(C)C)C(=O)N[C@@H](C)C(=O)NCC(=O)N[C@H]1CSCc2ccc(nc2)-c2ccc(cn2)CSC[C@@H](C(=O)N[C@@H](CO)C(=O)NCC(=O)N[C@@H](CC(C)C)C(=O)N[C@@H](CCCCN)C(=O)NCC(N)=O)NC(=O)[C@H](CC(C)C)NC(=O)[C@H](CC(C)C)NC(=O)[C@H](CC(N)=O)NC(=O)[C@H](CCCCN)NC(=O)[C@H]([C@@H](C)CC)NC(=O)[C@H](CCCCN)NC1=O [compound 71] (H-GIFSKLAGCKIKNLLCSGLKG-NH2; linker 9-16 via 2,2'Bipyridine(5,5'-diCH2); N-terminus assumed)
Minimum Inhibitory Concentration (MIC) S. aureus [1]: >64 µg/mL | Minimum Inhibitory Concentration (MIC) P. aeruginosa [2]: >64 µg/mL | Minimum Inhibitory Concentration (MIC) E. coli [3]: 64 µg/mL | Minimum Inhibitory Concentration (MIC) K. pneumoniae [4]: >64 µg/mL | Minimum Inhibitory Concentration (MIC) A. baumannii [5]: 32 µg/mL | IC50 [6]: 360 µg/mL (≈ 155 µM)

CC[C@H](C)[C@H](NC(=O)CN)C(=O)N[C@@H](Cc1ccccc1)C(=O)N[C@@H](CO)C(=O)N[C@@H](CCCCN)C(=O)N[C@@H](CC(C)C)C(=O)N[C@@H](C)C(=O)NCC(=O)N[C@@H](CCCCN)C(=O)N[C@@H](CCCCN)C(=O)N[C@H]1CSCc2ccc3cc(ccc3c2)CSC[C@@H](C(=O)N[C@@H](CC(C)C)C(=O)N[C@@H](CCCCN)C(=O)NCC(N)=O)NC(=O)[C@H](CO)NC(=O)[C@H]([C@@H](C)CC)NC(=O)[C@H](CC(C)C)NC(=O)[C@H](CC(C)C)NC(=O)[C@H](CC(N)=O)NC(=O)[C@H](CCCCN)NC1=O [compound 75] (H-GIFSKLAGKKCKNLLISCLKG-NH2; linker 11-18 via Naphthalene(2,6-diCH2); N-terminus assumed)
Minimum Inhibitory Concentration (MIC) S. aureus [1]: 64 µg/mL | Minimum Inhibitory Concentration (MIC) P. aeruginosa [2]: 16 µg/mL | Minimum Inhibitory Concentration (MIC) E. coli [3]: 4 µg/mL | Minimum Inhibitory Concentration (MIC) K. pneumoniae [4]: 16 µg/mL | Minimum Inhibitory Concentration (MIC) A. baumannii [5]: 4 µg/mL | IC50 [6]: 98 µg/mL (≈ 41.3 µM)

CC[C@H](C)[C@H](NC(=O)CN)C(=O)N[C@@H](Cc1ccccc1)C(=O)N[C@@H](CO)C(=O)N[C@@H](CCCCN)C(=O)N[C@@H](CC(C)C)C(=O)N[C@@H](C)C(=O)NCC(=O)N[C@@H](CCCCN)C(=O)N[C@@H](CCCCN)C(=O)N[C@H]1CSCc2ccc(nc2)-c2ccc(cn2)CSC[C@@H](C(=O)N[C@@H](CC(C)C)C(=O)N[C@@H](CCCCN)C(=O)NCC(N)=O)NC(=O)[C@H](CO)NC(=O)[C@H]([C@@H](C)CC)NC(=O)[C@H](CC(C)C)NC(=O)[C@H](CC(C)C)NC(=O)[C@H](CC(N)=O)NC(=O)[C@H](CCCCN)NC1=O [compound 77] (H-GIFSKLAGKKCKNLLISCLKG-NH2; linker 11-18 via 2,2'Bipyridine(5,5'-diCH2); N-terminus assumed)
Minimum Inhibitory Concentration (MIC) S. aureus [1]: >64 µg/mL | Minimum Inhibitory Concentration (MIC) P. aeruginosa [2]: 32 µg/mL | Minimum Inhibitory Concentration (MIC) E. coli [3]: 4 µg/mL | Minimum Inhibitory Concentration (MIC) K. pneumoniae [4]: 32 µg/mL | Minimum Inhibitory Concentration (MIC) A. baumannii [5]: 4 µg/mL | IC50 [6]: 159 µg/mL (≈ 66.2 µM)

CC[C@H](C)[C@H](NC(=O)CN)C(=O)N[C@@H](Cc1ccccc1)C(=O)N[C@@H](CO)C(=O)N[C@@H](CCCCN)C(=O)N[C@@H](CC(C)C)C(=O)N[C@@H](C)C(=O)NCC(=O)N[C@@H](CCCCN)C(=O)N[C@@H](CCCCN)C(=O)N[C@H](C(=O)N[C@H]1CSCc2ccc3cc(ccc3c2)CSC[C@@H](C(=O)N[C@@H](CCCCN)C(=O)NCC(N)=O)NC(=O)CNC(=O)[C@H](CO)NC(=O)[C@H]([C@@H](C)CC)NC(=O)[C@H](CC(C)C)NC(=O)[C@H](CC(C)C)NC(=O)[C@H](CC(N)=O)NC1=O)[C@@H](C)CC [compound 78] (H-GIFSKLAGKKICNLLISGCKG-NH2; linker 12-19 via Naphthalene(2,6-diCH2); N-terminus assumed)
Minimum Inhibitory Concentration (MIC) S. aureus [1]: >64 µg/mL | Minimum Inhibitory Concentration (MIC) P. aeruginosa [2]: 64 µg/mL | Minimum Inhibitory Concentration (MIC) E. coli [3]: 16 µg/mL | Minimum Inhibitory Concentration (MIC) K. pneumoniae [4]: 64 µg/mL | Minimum Inhibitory Concentration (MIC) A. baumannii [5]: 16 µg/mL | IC50 [6]: 108 µg/mL (≈ 46.9 µM)

CC[C@H](C)[C@H](NC(=O)CN)C(=O)N[C@@H](Cc1ccccc1)C(=O)N[C@@H](CO)C(=O)N[C@@H](CCCCN)C(=O)N[C@@H](CC(C)C)C(=O)N[C@@H](C)C(=O)NCC(=O)N[C@@H](CCCCN)C(=O)N[C@@H](CCCCN)C(=O)N[C@H](C(=O)N[C@H]1CSCc2ccc(nc2)-c2ccc(cn2)CSC[C@@H](C(=O)N[C@@H](CCCCN)C(=O)NCC(N)=O)NC(=O)CNC(=O)[C@H](CO)NC(=O)[C@H]([C@@H](C)CC)NC(=O)[C@H](CC(C)C)NC(=O)[C@H](CC(C)C)NC(=O)[C@H](CC(N)=O)NC1=O)[C@@H](C)CC [compound 80] (H-GIFSKLAGKKICNLLISGCKG-NH2; linker 12-19 via 2,2'Bipyridine(5,5'-diCH2); N-terminus assumed)
Minimum Inhibitory Concentration (MIC) S. aureus [1]: >64 µg/mL | Minimum Inhibitory Concentration (MIC) P. aeruginosa [2]: >64 µg/mL | Minimum Inhibitory Concentration (MIC) E. coli [3]: 32 µg/mL | Minimum Inhibitory Concentration (MIC) K. pneumoniae [4]: >64 µg/mL | Minimum Inhibitory Concentration (MIC) A. baumannii [5]: 32 µg/mL | IC50 [6]: 49 µg/mL (≈ 21 µM)

CC[C@H](C)[C@H](NC(=O)CN)C(=O)N[C@@H](Cc1ccccc1)C(=O)N[C@@H](CO)C(=O)N[C@@H](CCCCN)C(=O)N[C@@H](CC(C)C)C(=O)N[C@@H](C)C(=O)NCC(=O)N[C@@H](CCCCN)C(=O)N[C@@H](CCCCN)C(=O)N[C@H](C(=O)N[C@@H](CCCCN)C(=O)N[C@H]1CSCc2ccc(nc2)-c2ccc(cn2)CSC[C@@H](C(=O)NCC(N)=O)NC(=O)[C@H](CC(C)C)NC(=O)CNC(=O)[C@H](CO)NC(=O)[C@H]([C@@H](C)CC)NC(=O)[C@H](CC(C)C)NC(=O)[C@H](CC(C)C)NC1=O)[C@@H](C)CC [compound 81] (H-GIFSKLAGKKIKCLLISGLCG-NH2; linker 13-20 via 2,2'Bipyridine(5,5'-diCH2); N-terminus assumed)
Minimum Inhibitory Concentration (MIC) S. aureus [1]: >64 µg/mL | Minimum Inhibitory Concentration (MIC) P. aeruginosa [2]: 32 µg/mL | Minimum Inhibitory Concentration (MIC) E. coli [3]: 4 µg/mL | Minimum Inhibitory Concentration (MIC) K. pneumoniae [4]: 8 µg/mL | Minimum Inhibitory Concentration (MIC) A. baumannii [5]: 4 µg/mL | IC50 [6]: 57 µg/mL (≈ 24.5 µM)

CC[C@H](C)[C@H](NC(=O)CN)C(=O)N[C@@H](Cc1ccccc1)C(=O)N[C@@H](CO)C(=O)N[C@@H](CCCCN)C(=O)N[C@@H](CC(C)C)C(=O)N[C@@H](C)C(=O)NCC(=O)N[C@@H](CCCCN)C(=O)N[C@@H](CCCCN)C(=O)N[C@H](C(=O)N[C@@H](CCCCN)C(=O)N[C@H]1CSCc2ccc3cc(ccc3c2)CSC[C@@H](C(=O)NCC(N)=O)NC(=O)[C@H](CC(C)C)NC(=O)CNC(=O)[C@H](CO)NC(=O)[C@H]([C@@H](C)CC)NC(=O)[C@H](CC(C)C)NC(=O)[C@H](CC(C)C)NC1=O)[C@@H](C)CC [compound 82] (H-GIFSKLAGKKIKCLLISGLCG-NH2; linker 13-20 via Naphthalene(2,6-diCH2); N-terminus assumed)
Minimum Inhibitory Concentration (MIC) S. aureus [1]: >64 µg/mL | Minimum Inhibitory Concentration (MIC) P. aeruginosa [2]: 32 µg/mL | Minimum Inhibitory Concentration (MIC) E. coli [3]: 4 µg/mL | Minimum Inhibitory Concentration (MIC) K. pneumoniae [4]: 8 µg/mL | Minimum Inhibitory Concentration (MIC) A. baumannii [5]: 4 µg/mL | IC50 [6]: 23 µg/mL (≈ 10 µM)
